The EC50 is the midpoint of the concentration-response curve. A higher EC50 goes with weaker potency.

The target of the experiment is T1, β2-chimaerin (Homo sapiens, UniProt P52757).
T1 sequence (P52757 1-468): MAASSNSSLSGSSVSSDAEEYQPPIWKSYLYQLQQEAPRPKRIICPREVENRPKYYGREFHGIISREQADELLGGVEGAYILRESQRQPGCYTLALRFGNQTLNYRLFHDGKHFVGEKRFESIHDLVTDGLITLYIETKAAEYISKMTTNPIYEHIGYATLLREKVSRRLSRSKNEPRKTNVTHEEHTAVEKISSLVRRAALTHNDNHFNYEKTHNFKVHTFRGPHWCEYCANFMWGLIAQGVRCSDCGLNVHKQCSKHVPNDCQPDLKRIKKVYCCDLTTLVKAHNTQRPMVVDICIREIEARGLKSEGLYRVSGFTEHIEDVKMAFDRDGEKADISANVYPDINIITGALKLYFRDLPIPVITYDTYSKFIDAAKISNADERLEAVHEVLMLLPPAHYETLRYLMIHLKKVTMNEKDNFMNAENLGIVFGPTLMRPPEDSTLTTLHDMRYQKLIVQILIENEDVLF
Type of experiment: cell-based.

`CCCCCCCCCCCCCC(=O)O[C@@H]1[C@@H](C)[C@@]2(O)[C@@H](C=C(CO)C[C@]3(O)C(=O)C(C)=C[C@@H]23)[C@@H]2C(C)(C)[C@]12OC(C)=O` [Phorbol 12-myristate 13-acetate] had an EC50 of 1.202 ± 0.001 µM.

(Values after article PMC3969763 (Molecular biology reports, 2014).)
